System: mouse derived immortalized melanocyte cells (M3)
Experiment: Suppression of melanogenesis in vitro (modified Dooley assay)
Type: cell-based
Settings: treatment dose 0.100%; treated days 1, 3, 5; melanin extracted day 6, OD 405 nm

Structure (SMILES): O=C1O[C@H]([C@@H](O)CO)C(O)=C1O [Ascorbic Acid]
- % Control Melanin: 51%

Reference: US7364759B2, “Skin whitening compositions containing black cohosh extract” (Access Business Group International LLC, priority 2003, dated 2008)
